In brackets after ≈: the same amount, converted by molar mass.
How the values were obtained:
[1] = tested on: HaCaT cells; parameters: method as in Deepika et al., 2019; settings: ref Deepika et al., 2019; cited from earlier work
[2] = tested on: HaCaT cells; assay type: cell-based, human; settings: 1-100 µM, 24 h
Experimental: (§1) To evaluate the in vitro effect of rutin esters (REs) on cells’ viability, the MTT technique was applied following a 24 h treatment of H9c2(2-1), HepaRG, and HaCaT cells with RUT-O and RUT-L (1, 10, 25, 50, and 100 µM). The parent compounds (PCs)—RUT, OA, and LA were also tested. DMSO was used as solvent for all test compounds (RUT, OA, LA, RUT-O, and RUT-L). The impact of DMSO at tested concentrations (1, 10, 25, 50, and 100 µM) was also assessed in vitro. At the end of the treatment, fresh media (100 µl) and the MTT reagent (10 µl) were added in each well, and the plates were incubated for 3 h at 37°C. The final steps were as follows: addition of the solubilization solution (100 µl/well), incubation of the plates at room temperature for 30 min, protected from light, and absorbance measurement at two wavelengths (570 and 630 nm) using Cytation 5 (BioTek Instruments Inc., Winooski, VT, United States). The results were expressed as percentage (%) of viable cells normalized to control cells (unstimulated cells).

[3] = tested on: H9c2(2-1), HaCaT, and HepaRG cells; assay type: cell-based; settings: 100 µM, 24 h; for impact on cells' adherence or confluency: compared to control cells
Experimental: To verify the impact of PCs (RUT, OA and LA) and REs (RUT-O and RUT-L) on the morphology and confluence of H9c2(2-1), HaCaT, and HepaRG cells, a microscopic examination was performed. The cells were observed under bright field illumination and photographed at the end of the 24 h treatment period using Cytation 1 (BioTek Instruments Inc., Winooski, VT, United States). The photographs were processed using the Gen5™ Microplate Data Collection and Analysis Software (BioTek Instruments Inc., Winooski, VT, United States).

[4] = tested on: HepaRG cells; assay type: cell-based, human; settings: 100 µM, 24 h, Hoechst 33342
Experimental: (§2) The potential toxicity of 100 μM RUT, OA, LA, RUT-O, and RUT-L at nuclear level was tested by applying the Hoechst 33342 staining assay protocol according to the manufacturer’s (Thermo Fisher Scientific, Inc., Waltham, MA, United States) recommendations. In brief, H9c2(2-1), HepaRG, and HaCaT cells were seeded in 12-well plates (10^5 cells/1.5 ml/well) and treated with the test compounds for 24 h. After the stimulation period, the media was removed, and the staining solution diluted 1:2000 in PBS was added (500 µl/well). The plates were incubated for 10 min at room temperature, protected from light. Finally, the staining solution was washed with PBS and the pictures were taken using Cytation 1 (BioTek Instruments Inc., Winooski, VT, United States) and analyzed by the means of Gen5™ Microplate Data Collection and Analysis Software (BioTek Instruments Inc., Winooski, VT, United States). Staurosporine (STP) 5 µM was selected as positive control for apoptosis.

[5] = tested on: HaCaT cells; assay type: cell-based, human; settings: 100 µM, 24 h, Hoechst 33342
Experimental: as §2

[6] = tested on: chorioallantoic membrane; assay: HET-CAM in ovo irritant potential; assay type: in vivo, Gallus domesticus; settings: 5 min after application
Experimental: To perform a toxicological screening and to verify the irritant potential of the RUT-O and RUT-L were used chicken eggs (Gallus domesticus). Specifically, the eggs were prepared as follows: 1) after being washed and disinfected with 70% ethanol (v/v), the eggs were placed in an incubator in a horizontal posture; 2) on the fourth day of incubation, a small hole was made through which a volume of approximately 7–8 ml of albumen was extracted in order to facilitate the detachment of the chorioallantoic membrane from the inner shell of the egg; 3) on the fifth day of incubation, a window was cut in the upper part of the egg to allow the visualization of the blood vessels, which was then covered with adhesive tape and the eggs were placed in the incubator until the day of the beginning of the experiment. Using the Hen’s Egg Test—Chorioallantoic Membrane (HET-CAM) assay, the potential in ovo toxicity of the samples was evaluated. […] [Kis et al., 2022]). […] In order to observe any vascular effects, a stereomicroscope (Discovery 8 Stereomicroscope Zeiss, Göttingen, and Germany) was used, and images were taken with a Zeiss Axio CAM 105 color camera before and 5 min after the application of the samples. The same experimental protocol was applied for the parent compounds—RUT, OA, and LA.

[7] = tested on: H9c2(2-1) cells; assay: in vitro; assay type: cell-based, rat; settings: H9c2(2-1), 24 h
Experimental: as §1

[8] = tested on: H9c2(2-1) cells; assay: Wound healing (scratch) assay; assay type: cell-based, rat; settings: 25 µM, 24 h, control 45.71%
Experimental: (§3) The influence of RUT-O and RUT-L on the migration of cells was assessed by performing the wound healing (scratch) assay. In brief, the cells (10^5 cells/ml/well) were cultured in 24-well plates (Corning Costar), and an automatic scratch was made in each well by using the AutoScratchTM Wound Making Tool provided by BioTek® Instruments Inc. (Winooski, VT, United States). The cells were further treated with the flavonoid esters at the concentration of 25 μM for 24 h, and representative images of the wound area were taken at 0 and 24 h using Cytation 1 (BioTek® Instruments Inc., Winooski, VT, United States). The wound widths were measured using Gen5 TM Microplate Data Collection and Analysis Software (BioTek® Instruments Inc., Winooski, VT, United States). The effects on cell migration were quantified by calculating the wound healing rates (%) using a formula presented in our previous studies ([[…] et al., 2020]).

[9] = tested on: H9c2(2-1) cells; assay type: cell-based, rat; settings: 100 µM, 24 h, Hoechst 33342
Experimental: as §2

[10] = tested on: HaCaT cells; assay: Wound healing (scratch) assay; assay type: cell-based, human; settings: 25 µM, 24 h
Experimental: as §3

[11] = tested on: HUVEC endothelial cells; settings: ref Lu et al., 2010; cited from earlier work
[12] = in vitro; assay type: cell-based, human; settings: human
Experimental: as §1

[13] = tested on: trophoblast-like Swan71 cells; parameters: method as in Shrestha et al., 2019; settings: 24 h of treatment, ref Shrestha et al., 2019; cited from earlier work
[14] = in vitro; assay type: cell-based, rat; settings: rat
Experimental: as §1

[15] = tested on: HaCaT; parameters: method as in Carullo et al., 2019; settings: 1 μM; ref Carullo et al., 2019; cited from earlier work
[16] = lowest concentrations (1 and 10 µM)

Compound	IC50, inhibitory effect on HaCaT cells' growth [1]	effect on cell viability [2]	impact on cells' adherence or confluency [3]	nuclear morphology changes [4]	nuclear morphology changes [5]	vascular irritation signs (hemorrhage, lysis, coagulation) in words [6]	effect on cell viability ([7]; highest concentrations (50 and 100 µM))	effect on cell viability [7, 16]	wound healing rate [8]	nuclear morphology changes [9]	effect on wound regeneration [10]	round cells floating in the culture medium ([3]; bright field)	concentrations suppressing HUVEC endothelial cells growth [11]	viability at 24 h, 100 µM [12]	decrease in the viability compared to vehicle control [13]	viability at 24 h, 50 µM [14]	viability at 24 h, 100 µM [14]	stimulation of HaCaT wound healing [15]
C[C@@H]1O[C@@H](OC[C@H]2O[C@@H](Oc3c(-c4ccc(O)c(O)c4)oc4cc(O)cc(O)c4c3=O)[C@H](O)[C@@H](O)[C@@H]2O)[C@H](O)[C@H](O)[C@H]1O [RUT, Rutin]	60 µg/mL (≈ 98.3 µM)	not affected	no negative impact	no significant nuclear alterations	no significant nuclear alterations	No signs of vascular irritation	did not decrease cells viability	stimulatory effect	37.73%	no significant nuclear alterations	no impact on wound regeneration							
CCCCC/C=C\C/C=C\CCCCCCCC(=O)O [LA, linoleic acid]			no negative impact	no significant nuclear alterations	no significant nuclear alterations	No signs of vascular irritation		stimulatory effect		no significant nuclear alterations		several round cells floating in the culture medium	higher than 300 µM	86.9%	10%	87.2%	84.2%	
CCCCCCCC/C=C\CCCCCCCC(=O)Oc1c(-c2ccc(O)c(O)c2)oc2cc(O)cc(O)c2c1=O [Quercetin-3-oleate]																		up to 51%

— PMC9538480, “Rutin bioconjugates as potential nutraceutical prodrugs: An in vitro and in ovo toxicological screening” (Frontiers in Pharmacology, 2022)
